Assay results published in patent US12551436B2, “Dosing regimens for treatment of proliferative disorders” (priority 2018, dated 2026).
Where “and” joins values, the source holds several entries; their conditions need not be identical. Equal entries are not always repeated. Where two headings read alike, the source gives them in different places.

Assay: Pharmacokinetics of curcumin and THC in plasma during and after liposomal curcumin infusion
Format: in vivo, human
Settings: for AUC(0-t): read-out: AUC0-Tlast
Experimental: Patient #21 was excluded from the PK analysis because the infusion was interrupted for 1.5 h.
Pharmacokinetic assessments. […] Samples for infusion #1 were collected at baseline (BL), 2 h after start of infusion and after end of infusion at 0 min=EOI, 10 min, 20 min, 30 min, 45 min, 60 min and 120 min and at EOI for infusions #2, #3, #5 and #8. […] The number of blood collections remained unchanged.

[1] = plasma THC, first liposomal curcumin infusion, DL 3: 150 mg/m^2, 8 h infusion, patient 17
[2] = plasma THC, first liposomal curcumin infusion, DL 4: 190 mg/m^2, 8 h infusion, Mean, patient #19 not included
[3] = plasma THC, first liposomal curcumin infusion, DL 4: 190 mg/m^2, 8 h infusion, individual patients
[4] = plasma THC, first liposomal curcumin infusion, DL 6: 300 mg/m^2, 8 h infusion, Mean
[5] = plasma THC, first liposomal curcumin infusion, DL 6a: 300 mg/m^2, 6 h infusion, Mean
[6] = plasma THC, first liposomal curcumin infusion, DL 6a: 300 mg/m^2, 6 h infusion, individual patients

## COc1cc(/C=C/C(=O)CC(=O)/C=C/c2ccc(O)c(OC)c2)ccc1O [Curcumin, (1E6E)-1,7-bis(4 hydroxy-3-methoxyphenyl)-1,6-heptadiene-3,5 dione]
human, in vivo, 240 mg/m^2, plasma curcumin, first liposomal curcumin infusion, DL 5: 240 mg/m^2 8 h infusion, Mean, read-out: Cmax
  Cmax: 647 ng/mL
human, in vivo, mean Tmax for curcumin
  Tmax: 3.6 to 4 h

## COc1cc(CCC(=O)CC(=O)CCc2ccc(O)c(OC)c2)ccc1O [tetrahydrocurcumin]
DL 1-DL 3 (100 to 150 mg/m^2), patients with only one blood collection during infusion, most samples
  plasma samples: below the limit of quantification
human, in vivo, 150 mg/m^2, plasma THC, first liposomal curcumin infusion, DL 3: 150 mg/m^2, 8 h infusion, patient 17
  AUC(0-t): 59 ng·h/mL
human, in vivo, 150 mg/m^2, plasma THC, first liposomal curcumin infusion, DL 3: 150 mg/m^2, 8 h infusion, patient 17, read-out: Cmax
  Cmax: 16.1 ng/mL
human, in vivo, 150 mg/m^2, plasma THC, first liposomal curcumin infusion, DL 3: 150 mg/m^2, 8 h infusion, patient 17, read-out: Tmax
  Tmax: 4 h
human, in vivo, 190 mg/m^2, plasma THC, first liposomal curcumin infusion, DL 4: 190 mg/m^2, 8 h infusion, Mean, patient #19 not included
  AUC(0-t): 27 ng·h/mL
human, in vivo, 190 mg/m^2, plasma THC, first liposomal curcumin infusion, DL 4: 190 mg/m^2, 8 h infusion, Mean, patient #19 not included, read-out: Cmax
  Cmax: 7.2 ng/mL
human, in vivo, 190 mg/m^2, plasma THC, first liposomal curcumin infusion, DL 4: 190 mg/m^2, 8 h infusion, Mean, patient #19 not included, read-out: Tmax
  Tmax: 5 h
human, in vivo, 300 mg/m^2, plasma THC, first liposomal curcumin infusion, DL 6: 300 mg/m^2, 8 h infusion, Mean
  AUC(0-t): 344 ng·h/mL
human, in vivo, 300 mg/m^2, plasma THC, first liposomal curcumin infusion, DL 6: 300 mg/m^2, 8 h infusion, Mean, read-out: Cmax
  Cmax: 74.4 ng/mL
human, in vivo, 300 mg/m^2, plasma THC, first liposomal curcumin infusion, DL 6: 300 mg/m^2, 8 h infusion, Mean, read-out: Tmax
  Tmax: 2.5 h
human, in vivo, 300 mg/m^2, plasma THC, first liposomal curcumin infusion, DL 6a: 300 mg/m^2, 6 h infusion, Mean
  AUC(0-t): 326 ng·h/mL
human, in vivo, 300 mg/m^2, plasma THC, first liposomal curcumin infusion, DL 6a: 300 mg/m^2, 6 h infusion, Mean, read-out: Cmax
  Cmax: 70.3 ng/mL
human, in vivo, 300 mg/m^2, plasma THC, first liposomal curcumin infusion, DL 6a: 300 mg/m^2, 6 h infusion, Mean, read-out: Tmax
  Tmax: 3.7 h
Mean across individual patients
  AUC0-TLast of THC as percentage of curcumin: 8.5%
[1]
  Clast: 10.3 ng/mL
  Tlast: 6.0 h
[2]
  Clast: 7.2 ng/mL
  Tlast: 5.0 h
[3]
  AUC0-Tlast: 22 ng·h/mL and 1656 ng·h/mL and 31 ng·h/mL
  Clast: 7.7 ng/mL and 11.8 ng/mL and 6.6 ng/mL
  Cmax: 7.7 ng/mL and 396.1 ng/mL and 6.6 ng/mL
  Tlast: 4.0 h and 8.8 h and 6.0 h
  Tmax: 8.1 h and 6.0 h
[4]
  Clast: 21.8 ng/mL
  Tlast: 7.7 h
[5]
  Clast: 6.2 ng/mL
  Tlast: 6.6 h
[6]
  AUC0-Tlast: 497 ng·h/mL and 155 ng·h/mL and 385 ng·h/mL and 332 ng·h/mL and 321 ng·h/mL and 264 ng·h/mL
  Clast: 6.9 ng/mL and 5.2 ng/mL (2×) and 6.0 ng/mL and 8.4 ng/mL and 5.7 ng/mL
  Cmax: 110.4 ng/mL and 35.1 ng/mL and 80.1 ng/mL and 67.6 ng/mL and 70.7 ng/mL and 58.3 ng/mL
  Tlast: 6.8 h (2×) and 7.3 h and 6.0 h and 6.6 h and 6.2 h
  Tmax: 2.0 h and 5.9 h and 5.8 h
Range across individual patients
  AUC0-TLast of THC as percentage of curcumin: 2.1%-21.8%
